Measured values as given in PMC9962512, “Synthesis and Anti-Angiogenic Activity of Novel c(RGDyK) Peptide-Based JH-VII-139-1 Conjugates” (Pharmaceutics, 2023).
Like-named read-outs stand apart in the source and are kept apart here.

How the values were obtained:
human SRPK1 = target: T1, human SRPK1 (Homo sapiens, UniProt Q96SB4); test: In vitro kinase assay (GST-SRPK1, GST-LBRNt(62-92) substrate, radioactive); assay type: biochemical; settings: 25 μM ATP; mean ± SD of three experiments; read-out: IC50 (nΜ) for SRPK1
T1 construct: made in house; host or cells: bacteria (pGEX-2T vector)
Experimental: The pGEX-2T bacterial expression vector (Amersham Biosciences GmbH, Freiburg, Germany) was used to construct plasmids that encode human SRPK1 and a fragment of the N-terminal domain of turkey LBR comprising amino acids 62–92 (LBRNt(62–92)). The GST-fusion proteins were produced in bacteria and purified using glutathione-Sepharose (Amersham Biosciences) according to the manufacturer’s instructions. Kinase assays were carried out in a total volume of 25 μL containing 0.5 μg GST-SRPK1, 1.5 μg GST-LBRNt(62–92) as substrate, 12 mM Hepes pH 7.5, 10 mM MgCl2, 25 μM ATP, and increasing concentrations of the inhibitors as indicated. In all assays, the final concentration of dimethyl sulfoxide (DMSO) was adjusted to 4%. Phosphorylated GST-LBRNt(62–92) was detected by autoradiography using Super RX (Fuji medical X-ray film,(Fujifilm Holdings Corporation, Tokyo, Japan)). Incorporated radioactivity was quantified by excising the radioactive bands from the SDS-PAGE gel and scintillation counting.

[1] = MTT assay, summary over the cell panel; assay type: cell-based
Experimental: (§1) HeLa, MCF7, MDA-MB-231 and K562 cancer cell lines were provided by ATCC (American Type Culture Collection). Cells were incubated at 37 °C with 5% CO2. HeLa, MCF7 and MDA-MB-231 cells were maintained in DMEM, while K562 cells were maintained in RPMI medium, both supplemented with 10% (v/v) fetal bovine serum (FBS) and antibiotics/antimycotics.
(§2) HeLa, MCF7, MDA-MB-231 and K562 cells were seeded in 96-well plates (3 × 10^3 cells per well) and grown in medium supplemented with 10% FBS as monolayers at 37 °C in a 5% CO2 incubator. One day after seeding, cells were exposed to increasing concentrations of the inhibitors for 48 h. The viability of the cells was estimated by an (3-(4,5-imethylthiazol-2-yl)-2,5-diphenyltetrazolium bromide (MTT) metabolic assay as described previously, and the percentage growth inhibition (GI50, TGI, IC50) was calculated according to National Cancer Institute recommendations as referred to Leonidis et al.. Values shown represent the means ± SE of three independent experiments.

[2] = Stability in Dulbecco's Modified Eagle Medium (+10% FBS); assay type: in vitro ADME; settings: for half-life at 396 µg/mL: DMEM + 10% FBS, read-out: half-life t1/2
Experimental: Conjugates geo75, geo77, geo85 and geo107 (200 μg in 5 μL DMSO) were diluted in 0.5 mL DMEM (+10% fetal bovine serum) mixture and incubated at 37 °C. At predetermined time intervals, 50 μL of the mixture was removed and quenched with 150 μL water/acetonitrile/formic acid solution (100/100/0.1 volume ratio) and the sample was analyzed by LC-MS. Three independent experiments were carried out and the results are presented as the mean ± standard deviation.

[3] = Stability in human plasma; assay type: in vitro ADME; settings: for half-life at 495 µg/mL: human, read-out: half-life t1/2
Experimental: First, 250 μg of (JH-VII-139-1)-c(RGDyK)-based conjugates were diluted in 5 μL DMSO and the mixture was added to 0.5 mL of human plasma. The mixtures were incubated at 37 °C. 50 μL of aliquot was removed at predetermined time points and quenched with 150 μL ice-cold acetonitrile (+0.1% formic acid). Then, the mixture was centrifuged at 10,000 rpm for 10 min. Then, 50 μL of supernatant was added to 50 μL of ultrapure water (+0.1% formic acid) and analyzed by LC-MS. Results are presented as the mean ± SD of three independent experiments.

[4] = buffer, pH 7.4
Experimental: (§3) The mixture was then incubated at 37 °C, samples were collected at predetermined time points (0, 1, 2, 3, 4, 5, 24 and 48 h), and analyzed by LC-MS. Results are presented as the mean ± of SD after repeating the experiment three times.

physchem [5] = settings: buffer, pH 5.2
Experimental: as §3

HeLa cells = test: cells; assay type: cell-based; settings: 48 h; for TGI: total growth inhibition
Experimental: as §1, §2

K562 cells = test: cells; assay type: cell-based; settings: for TGI: total growth inhibition
Experimental: as §1, §2

MDA-MB-231 cells = test: cells; assay type: cell-based; settings: for TGI: total growth inhibition
Experimental: as §1, §2

physchem [6] = settings: buffer, pH 7.4
Experimental: as §3

MCF7 cells = test: cells; assay type: cell-based; settings: for TGI: total growth inhibition
Experimental: as §1, §2

[7] = test system: zebrafish Tg(kdrl:gfp) embryos; test: Zebrafish angiogenesis assay, intersegmental vessels (ISVs); assay type: in vivo; settings: 10 μM, added 24 hpf, imaged 72 hpf
Experimental: The Tg(kdrl:gfp)^s843 [38] was used to measure angiogenesis. Zebrafish breeding was carried out according to the European Directive 2010/63 and the Recommended Guidelines for Zebrafish Husbandry Conditions.
Zebrafish Tg(kdrl:gfp)^s843 embryos were raised in E3 medium up to 24 hpf; then dechorinated and finally transferred to a 12-well plate (10 embryos per well). Each compound was dissolved in DMSO and then added in the wells at the following final concentrations: 10 μM JH-VII-139-1 and c(RGDyK), and 1.3 μM geo75, geo77, geo85, geo107. Treated embryos and control embryos (at the corresponding DMSO concentration) were kept at 28 °C and imaged at 72 hpf.
After anesthetizing embryos with 0.4% tricaine methanesulfonate (MS222), a fluorescent image was acquired using a Hamamatsu ORCA-Flash4.0LT digital camera. We used the total length of 8 intersegmental vessels (ISVs) per embryo and the width from each of the above ISVs was measured at three different points, i.e., the top, the middle, and the bottom point of each ISV, and then the average width was estimated. We measured the 8 ISVs that flank the end of the yolk extension. Length and widths were measured using the open-source software ImageJ 1.53a (http://imagej.nih.gov/ij (accessed on 30 May 2022)). A total of 30 embryos (4–7 per group) from independent experiments were measured. […]

α5β1 integrins = test system: α5β1 integrins; design: method as in PMID 28074920; settings: α5β1 ref 25; cited from earlier work
[8] = test system: HeLa, MCF-7, MDA-MB-231 and K562 cancer cells; test: MTT assay, summary over the cell panel; assay type: cell-based; settings: HeLa, MCF-7, MDA-MB-231 and K562; 48 h; read-out: GI50 (cytostatic effect), range over compounds and cell lines
Experimental: as §1, §2

SRPK1 = test system: SRPK1; design: method as in PMID 29478907; settings: SRPK1 ref 27; cited from earlier work
[9] = test system: angiogenesis in AMD animal model; design: method as in PMID 29478907; settings: AMD animal model ref 27; cited from earlier work
[10] = DMEM with 10% fetal bovine serum, 37 °C

T1 sequence (Q96SB4 whole entry): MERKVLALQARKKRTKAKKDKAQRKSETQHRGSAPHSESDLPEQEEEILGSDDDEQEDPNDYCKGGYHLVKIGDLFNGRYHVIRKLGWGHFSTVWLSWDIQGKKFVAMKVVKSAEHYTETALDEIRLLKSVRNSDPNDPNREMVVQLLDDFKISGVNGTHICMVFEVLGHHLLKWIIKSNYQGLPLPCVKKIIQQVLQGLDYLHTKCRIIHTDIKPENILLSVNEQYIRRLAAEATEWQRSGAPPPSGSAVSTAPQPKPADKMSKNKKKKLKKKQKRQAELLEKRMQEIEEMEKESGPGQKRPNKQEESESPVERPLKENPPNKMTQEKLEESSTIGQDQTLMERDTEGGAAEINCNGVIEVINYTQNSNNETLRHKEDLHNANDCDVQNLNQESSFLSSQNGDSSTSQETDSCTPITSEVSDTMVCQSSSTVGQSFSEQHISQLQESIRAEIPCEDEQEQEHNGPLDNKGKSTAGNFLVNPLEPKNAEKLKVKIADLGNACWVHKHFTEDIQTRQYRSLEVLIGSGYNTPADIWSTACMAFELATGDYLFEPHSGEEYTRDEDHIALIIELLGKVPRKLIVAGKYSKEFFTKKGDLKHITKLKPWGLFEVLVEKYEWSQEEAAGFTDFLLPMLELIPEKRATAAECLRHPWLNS

Row | Structure (SMILES) | IC50 (human SRPK1) | IC50 [1] | half-life at 495 µg/mL ([3]; 37 °C) | half-life t1/2 [4] | half-life (physchem [5]) | GI50 (HeLa cells) | IC50 (HeLa cells) | GI50 (K562 cells; 48 h) | IC50 (K562 cells; 48 h) | GI50 (MDA-MB-231 cells; 48 h) | IC50 (MDA-MB-231 cells; 48 h) | half-life at 396 µg/mL [2, 10] | half-life (physchem [6]) | GI50 (MCF7 cells; 48 h) | IC50 (MCF7 cells; 48 h) | TGI (HeLa cells; HeLa) | TGI (K562 cells; K562, 48 h) | TGI (MCF7 cells; MCF7, 48 h) | TGI (MDA-MB-231 cells; MDA-MB-231, 48 h) | inhibition of total width of ISVs [7] | other results
1 | CCc1cc2c(cc1-c1ccn(C(=O)OCCOCCOCCOC(=O)NCCCC[C@@H]3NC(=O)[C@@H](Cc4ccc(O)cc4)NC(=O)[C@H](CC(=O)O)NC(=O)CNC(=O)[C@H](CCCNC(=N)N)NC3=O)n1)C(C)(C)c1[nH]c3cc(C#N)ccc3c1C2=O [geo75] | 35 ± 1.1 nM | 3 to 18 µM | 11 min | 24h 15min h min | > 2880 min | – | – | – | – | – | – | – | – | – | – | – | – | – | – | – | time after which almost completely hydrolyzed ([2]; DMEM, 37 °C): 9 h; time after which almost completely hydrolyzed ([3]; 37 °C): 1 h
2 | CCc1cc2c(cc1-c1ccn(C(=O)NCCOCCOCCNC(=O)NCCCC[C@@H]3NC(=O)[C@@H](Cc4ccc(O)cc4)NC(=O)[C@H](CC(=O)O)NC(=O)CNC(=O)[C@H](CCCNC(=N)N)NC3=O)n1)C(C)(C)c1[nH]c3cc(C#N)ccc3c1C2=O [geo85] | 42 ± 1.9 nM | – | > 2880 min | – | > 2880 min | > 100 µM | > 100 µM | > 100 µM | > 100 µM | > 100 µM | > 100 µM | > 2880 min | > 2880 min | – | – | – | – | – | – | – | hydrolysis ([2]; DMEM, after 24 h): 10%; metabolised at 24 h, 495 µg/mL ([3]; after 24 h, read-out: hydrolysis): 10%
3 | CCc1cc2c(cc1-c1ccn(C(=O)CCCC(=O)NCCCC[C@@H]3NC(=O)[C@@H](Cc4ccc(O)cc4)NC(=O)[C@H](CC(=O)O)NC(=O)CNC(=O)[C@H](CCCNC(=N)N)NC3=O)n1)C(C)(C)c1[nH]c3cc(C#N)ccc3c1C2=O [geo77] | 30 ± 1.7 nM | 3 to 18 µM | 10 to 50 min | 1 h 44 min h min | – | 5 ± 0.2 µM | 9 ± 0.2 µM | 12 ± 0.9 µM | 17 ± 0.5 µM | 8 ± 0.5 µM | 10 ± 0.3 µM | – | – | 4 ± 0.4 µM | 3 ± 0.4 µM | – | – | – | – | – | –
4 | N=C(N)NCCC[C@@H]1NC(=O)[C@H](CCCCN)NC(=O)[C@@H](Cc2ccc(O)cc2)NC(=O)[C@H](CC(=O)O)NC(=O)CNC1=O [c(RGDyK)] | – | – | – | – | – | 79 ± 2.2 µM | […] | […] | […] | […] | […] | – | – | […] | […] | […] | […] | […] | […] | non-significant trend | IC50 (α5β1 integrins): 236 ± 45 nM
5 | CCc1cc2c(cc1-c1cc[nH]n1)C(C)(C)c1[nH]c3cc(C#N)ccc3c1C2=O [JH-VII-139-1, 9-Ethyl-6,6-dimethyl-11-oxo-8-(1H-pyrazol-3-yl)-6,11-dihydro-5H-benzo[b]carbazole-3-carbonitrile] | 32 ± 0.5 nM | – | – | – | – | – | – | – | – | – | – | – | – | – | – | 19 ± 0.2 μΜ | 15 ± 0.5 μΜ | 19 ± 0.3 μΜ | 21 ± 0.4 μΜ | non-significant trend | GI50 (HeLa cells; Homo sapiens, HeLa, 50% growth inhibition, read-out: GI50): 8 ± 0.2 µM; IC50 (HeLa cells; Homo sapiens, HeLa, cytotoxic effect, read-out: IC50): 14 ± 0.8 µM; GI50 (K562 cells; Homo sapiens, K562, 48 h, 50% growth inhibition, read-out: GI50): 8 ± 0.5 µM; IC50 (K562 cells; Homo sapiens, K562, 48 h, cytotoxic effect, read-out: IC50): 13 ± 0.3 µM; GI50 (MCF7 cells; Homo sapiens, MCF7, 48 h, 50% growth inhibition, read-out: GI50): 9 ± 0.2 µM; IC50 (MCF7 cells; Homo sapiens, MCF7, 48 h, cytotoxic effect, read-out: IC50): 8 ± 0.6 µM; GI50 (MDA-MB-231 cells; Homo sapiens, MDA-MB-231, 48 h, 50% growth inhibition, read-out: GI50): 11 ± 0.3 µM; IC50 (MDA-MB-231 cells; Homo sapiens, MDA-MB-231, 48 h, cytotoxic effect, read-out: IC50): 18 ± 0.5 µM; IC50 at 48 h ([1]; human, MDA-MB-231 and K562 cancer cells, HeLa, MCF-7, MDA-MB-231 and K562, 48 h, read-out: IC50 (cytotoxic effect), range over compounds and cell lines): 3 to 18 µM; GI50 [8]: 4 to 12 µM; half-life at 396 µg/mL ([2]; bovine, DMEM with 10% fetal bovine serum (cell-free), 37 °C): > 2880 min; half-life at 495 µg/mL ([3]; plasma, 37 °C): > 2880 min; IC50 (SRPK1): 1.1 nM; effect on angiogenesis [9]: blocks angiogenesis
6 | CCc1cc2c(cc1-c1ccn(C(=O)NCCOCCOCCNC(=O)N[C@@H](CCCCN)C(=O)NCCCC[C@@H]3NC(=O)[C@@H](Cc4ccc(O)cc4)NC(=O)[C@H](CC(=O)O)NC(=O)CNC(=O)[C@H](CCCNC(=N)N)NC3=O)n1)C(C)(C)c1[nH]c3cc(C#N)ccc3c1C2=O [geo107] | – | – | > 2880 min | – | > 2880 min | – | – | – | – | – | – | > 2880 min | > 2880 min | – | – | – | – | – | – | – | residual concentration (of initial concentration), lowest ([2]; cell media (DMEM), up to 48 h): ≥ 80%; residual concentration (of initial concentration), lowest ([3]; up to 48 h): ≥ 80%
